# Patent US11035851B2, “Method of identifying cosmetic agents for moisturizing skin” (The Procter & Gamble Company, priority 2016, dated 2021)
# System: epidermal gene expression (GeneTitan U219 probes)
# Experiment: Genomic evaluation of LCM-derived epidermal samples before vs. after surfactant (SLS) challenge, leg controlled application test
# Type: in vivo, human
# Conditions: for Significant Beyond Chance / Number of Probes (significantly different): summer, after 5 day 1% SLS treatment vs. baseline; for Number of Probes (significantly different): p<0.05, approximately 2465 probes expected by chance
# Procedure: 25 ng of purified RNA is converted to biotin-labeled cRNA copies using the Affymetrix HT 3′ IVT Express kit (Cat. #901253) and protocol provided as executed on a Beckman Biomek® FX^p Laboratory Automation Workstation (Beckman Cat. #A31842), or equivalent. In brief, 500 ng of total RNA is reverse-transcribed into cDNA copies using oligo-dT primers and reverse transcriptase followed by second strand synthesis using DNA polymerase I. Following purification, the cDNA library is used as a template for generating biotin-labeled cRNA copies using T7 RNA polymerase and biotinylated dUTP. Biotinylated cRNA is fragmented by limited alkaline hydrolysis and then hybridized overnight to Affymetrix GeneTitan® U219 array plates using the Affymetrix GeneTitan® instrument and protocol provided. Following processing, chip images are converted to numeric data using the PLIER algorithm as executed in the Affymetrix GeneChip Expression Console.
# A clinical study was conducted to conduct a genomic evaluation of subjects with inherently dry skin versus subjects with inherently normal moisturized skin in the winter season (phase 1) and summer season (phase 2. The clinical study design for each phase was a leg controlled application test (LCAT) protocol. The phase 2 portion of the test also included a determination of genomic differences between subjects that are treated with a drying agent (“surfactant challenged”).
# Phase 2 clinical design: human subjects from phase 1 were recalled during the summer season (i.e., June-August) and maintained in their respective cohort groups. A cohort of 29 subjects was recalled for the inherently dry skin group, while a cohort of 12 subjects was recalled for the inherently normal moisturized skin group. All subjects were pre-conditioned with Olay® soap bar for 7 days (days −7 to −1) followed by a 2 day regression. Subjects were instructed to abstain from washing their legs with any products and from using any leave-on products on their legs during the pretreatment period. Dry Skin Grade measurements, full thickness biopsies, and other skin health measurements (e.g., TEWL) were taken on day 1. Subjects with a dry skin score of greater than 4.0 were excluded from biopsies. The full thickness biopsies were later separated into epidermal and dermal sections via LCM, and the epidermal section was used for genomic analysis.
# On days 3-7 (5 consecutive days) subjects who have a Dryness Grade less than 3.0 on one or both legs continue on the study, all other subjects were excused from the study. The clinical staff conducted visual grading at a site adjacent to the biopsy site, followed by a surfactant challenge (i.e., treating the site with 1% sodium lauryl sulfate (“SLS”) solution and occluding the site with a Hill Top Chamber® brand occlusive patch test system for 30 minutes). Each day the dryness was visually graded prior to the SLS treatment. On day 8 (24 hrs. following Day 7), bio-instruments measures were taken, but biomarkers and biopsies were only taken if the surfactant challenged site has a Dryness Grade below 4.0.
# Results: 237 LCM-derived epidermal samples were processed on GeneTitan® U219 chips as described above. Of these, 11 were statistical outliers that were eliminated from the data set. For purposes of statistical treatment, the left and right leg samples from each subject, at each phase of the study, were considered replicates. An ANOVA model was used to determine group differences.
# [1] = P2 D5 Dry vs. P2 BL Dry: inherently dry skin
# [2] = P2 D5 Healthy vs. P2 BL Healthy: inherently normal moisturized skin
smiles,measurement,setting,value
"CCCCCCCCCCCCOS(=O)(=O)[O-].[Na+] [SLS, sodium lauryl sulfate]",Significant Beyond Chance,[1],Yes
same,Number of Probes (significantly different),[1],10696
same,Significant Beyond Chance,[2],Yes
same,Number of Probes (significantly different),[2],6110
same,"Difference in probe expression, paired (within-group) comparison before vs. after SLS treatment","within dry skin or normal/healthy skin groups, summer phase",significant differences
